The values below come from patent publication US6001872A, “Water soluble transplatinum complexes with anti-cancer activity and method of using same” (priority 1999, dated 1999).

For data set [1], the system named is murine L1210 cisplatin-sensitive leukemia cells. In words: Cytotoxicity: cell-growth inhibition in murine L1210 cisplatin-sensitive leukemia cells, 72-hour drug incubation. The class given is cell-based. The settings on record: for IC50: 72-hour drug incubation, read-out: ID50 (50% inhibitory drug concentration); for cytotoxicity compared with cisplatin: in vitro. As for the experimental part: Studies were performed in vitro to assess the cytotoxicity of trans-[Pt(PyAc-N,O)Cl(NH3)] in comparison to several relevant Pt compounds. Cytotoxicity was monitored by cell-growth inhibition experiments in murine L1210 cisplatin-sensitive leukemia cells. The L1210 cell line has been used as a prognosticator of human antitumor activity for some time [Wolpert-DeFilippes, M. K., "Antitumor Activity of Cisplatin Analogs" in: Cisplatin. Current Status and Developments, Prestayko, A. W., Crooke, S. T., and Carter, S. K., eds, Academic Press, (London) 1980, pp. 183-192.]. A separate, non-treated culture was used as a control for these investigations.

For data set [2] the following is noted: presence of a planar ligand, trans geometry; cited from earlier work.
For data set [3] the following is noted: in vivo; cited from earlier work.
Data set [4] in a line: N,O-chelate formation (displacement of chloride by carboxylate, complex 1 to complex 2). Type of data set: physicochemical. An excerpt:
The details of this synthesis may be found in Example 1 below. The preparation utilizes the anionic N,O-chelating ligand pyridine-2-yl-acetate (PyAc), which introduces a carboxylate donor cis to the nitrogen atom of the planar ligand. The bidentate ligand was used in its O-protected form, i.e., the corresponding methylester (PyAcMe). Formation of the N,O-chelate was achieved via the intermediate dichloro form, trans-[PtCl2 (NH3)(PyAcH)].H2 O (complex 1.H2 O) at neutral pH.
For the purposes of this invention, it should be further noted that the form for administration to patients may be either complex 1 or complex 2, since the former would spontaneously form the N-O chelate under physiological conditions.

Entries after “also recorded” stand apart in the source; their conditions may differ. Some results are limits rather than exact numbers.

Regarding `N.N.[Cl][Pt][Cl]` [cisplatin, cis-[PtCl2 (NH3)2]], the IC50 in data set [1] is 430 nM.

Consider `N.[Cl][Pt][Cl].c1ccc2ncccc2c1` [trans-[PtCl2 (NH3)(quinoline)]], for which the “in vitro cytotoxicity, effect of planar ligand” value in data set [2] is “dramatically enhances the in vitro cytotoxicity”.

In the case of `N.N.[Cl][Pt+2][Cl]` [transplatin, trans-[PtCl2 (NH3)2]], in data set [1], the IC50 turned out to be 14000 nM and the “cytotoxicity compared with cisplatin” value is “inactive”. Further, the “therapeutic/biological activity” value in data set [3] was “biologically inactive; also recorded: therapeutically inactive”.

For the compound cis-[Pt(PyAc-N,O)Cl(NH3)], in data set [1], the IC50 was more than 20000 nM. For the same compound, the “cytotoxicity compared with cisplatin” value in data set [1] was “inactive”; in data set [1] (listed as cis-isomer), “must be considered inactive”.

For trans-[Pt(PyAc-N,O)Cl(NH3)] [Complex 2], the solubility in water is on record as 4 mmol 1-1. Further, in data set [1], the IC50 was determined as 880 nM and the “cytotoxicity compared with cisplatin” value is given as “comparably cytotoxic to cisplatin itself”.

In the case of trans-[PtCl2 (NH3)(PyAcH)] [Complex 1], the “displacement of chloride by carboxylate” value in data set [4] (e.g. in 10^-2 M HCl) is recorded as “remarkably facile”. Besides, the “formation of complex 2 from complex 1” value in data set [4] (pH values greater than 2) is recorded as “readily formed”.
